According to US11203563B2, “Preparation of zinc linolenate, and application of zinc linolenate in preparing anti-helicobacter pylori drug” (NANJING MEDICAL UNIVERSITY, priority 2018, dated 2021):

Legend:
[1] = test system: Enterococcus faecium (ATCC19434); test: MIC by microdilution method, non-Helicobacter pylori bacteria; type: cell-based; parameters: key: +: Bacterial growth; −: No bacterial growth; conditions: 72 h
Procedure: (§1) 2.2 Detection of minimum inhibitory concentration (MIC, 100 µL system) of zinc linolenate for non-Helicobacter pylori bacteria by microdilution method
(§2) (1) Zinc linolenate (2 mg/mL) is prepared.
(§3) (3) Bacterial solution preparation: the non-Helicobacter pylori grown in a log phase on a solid plate is taken to make a bacterial suspension with a BHI culture medium, the absorbance (OD600) is adjusted to 0.3 (1×10^8 CFU/mL), and the bacterial suspension is diluted 100 times to 1×10^6 CFU/mL for use.
(§4) (4) Inoculation of bacterial solution: 10 μL of bacterial solution above is taken and added to the 1-8th wells (the concentration of the bacterial solution per well is about 1.0×10^5 CFU/mL). Culture is performed for 72 h to judge the result. The drug concentrations of the first-seventh wells are 128, 64, 32, 16, 8, 4, and 2 μg/mL, respectively.
(§5) The experiment only makes sense when the bacteria obviously grow in the 8th well, i.e. the positive control well (without antibiotics). When a single drift occurs in the microdilution method, the maximum drug concentration that inhibits bacterial growth should be recorded. If there are multiple drifts, the results should not be reported and the experiment should be repeated. The experiment is repeated 3 times for each drug.

[2] = test system: Stenotrophomonas maltophilia; test: as above; type: cell-based; parameters: key: +: Bacterial growth; −: No bacterial growth; conditions: 72 h
Procedure: as §1, §2, §3, §4, §5

Morganella morganii = test: as above; type: cell-based; parameters: key: +: Bacterial growth; −: No bacterial growth; conditions: 72 h
Procedure: as §1, §2, §3, §4, §5

Bacillus cereus = test: as above; type: cell-based; parameters: key: +: Bacterial growth; −: No bacterial growth; conditions: 72 h
Procedure: as §1, §2, §3, §4, §5

[3] = test system: Acinetobacter baumannii (ATCC19606); test: as above; type: cell-based; parameters: key: +: Bacterial growth; −: No bacterial growth; conditions: 72 h
Procedure: as §1, §2, §3, §4, §5

Bacillus subtilis (168) = test: as above; type: cell-based; parameters: key: +: Bacterial growth; −: No bacterial growth; conditions: 72 h
Procedure: as §1, §2, §3, §4, §5

[4] = test system: Haemophilus influenzae (ATCC49766); test: as above; type: cell-based; parameters: key: +: Bacterial growth; −: No bacterial growth; conditions: 72 h
Procedure: as §1, §2, §3, §4, §5

[5] = test system: Neisseria gonorrhoeae (ATCC19424); test: as above; type: cell-based; parameters: key: +: Bacterial growth; −: No bacterial growth; conditions: 72 h
Procedure: as §1, §2, §3, §4, §5

[6] = test system: Salmonella typhi (14028s); test: as above; type: cell-based; parameters: key: +: Bacterial growth; −: No bacterial growth; conditions: 72 h
Procedure: as §1, §2, §3, §4, §5

Shigella dysenteriae = test: as above; type: cell-based; parameters: key: +: Bacterial growth; −: No bacterial growth; conditions: 72 h
Procedure: as §1, §2, §3, §4, §5

[7] = test system: Campylobacter jejuni (NCTC11168); test: as above; type: cell-based; parameters: key: +: Bacterial growth; −: No bacterial growth; conditions: 72 h
Procedure: as §1, §2, §3, §4, §5

Ges-1 cells = type: cell-based
From the text: 2.4.1 Cytotoxicity detection

[8] = Animal toxicity, 10 times the therapeutic dose
Procedure: (1) Preparation of mice: 20 8-week-old C57BL/6 mice are randomly divided into an administration group containing 10 mice and a negative control group containing 10 mice.
(2) Intragastric administration: administration is performed with 10 times the therapeutic dose of zinc linolenate, that is, administration is performed according to 240 mg/kg per mouse, once a day for 3 consecutive days. The negative control group is administered with a PBS solution, and the number of times and dose are same as those in the administration group.
(3) Weighing of weight: the weight of mice is weighed 1 day before administration for 7 consecutive days.
(4) Efficacy test: the mice in the infection group are weighed 3 days after the drug is stopped, and the average weight is calculated. Blood is taken from the eyeballs, and the mice are sacrificed by cervical dislocation. Stomach, kidney, liver and spleen tissues are taken, pathologically sectioned and HE stained, and serum is tested for liver and kidney functions.

## CC/C=C\C/C=C\C/C=C\CCCCCCCC(=O)[O-].CC/C=C\C/C=C\C/C=C\CCCCCCCC(=O)[O-].[Zn+2] [zinc linolenate]
[1]; zinc linolenate 2 μg/ml
  Bacterial growth: +
[1]; zinc linolenate 4 μg/ml
  Bacterial growth: +
[1]; zinc linolenate 8 μg/ml
  Bacterial growth: +
[1]; zinc linolenate 16 μg/ml
  Bacterial growth: +
[1]; zinc linolenate 32 μg/ml
  Bacterial growth: +
[1]; zinc linolenate 64 μg/ml
  Bacterial growth: +
[1]; zinc linolenate 128 μg/ml
  Bacterial growth: +
[2]; zinc linolenate 2 μg/ml
  Bacterial growth: +
[2]; zinc linolenate 4 μg/ml
  Bacterial growth: +
[2]; zinc linolenate 8 μg/ml
  Bacterial growth: +
[2]; zinc linolenate 16 μg/ml
  Bacterial growth: +
[2]; zinc linolenate 32 μg/ml
  Bacterial growth: +
[2]; zinc linolenate 64 μg/ml
  Bacterial growth: +
[2]; zinc linolenate 128 μg/ml
  Bacterial growth: −
Morganella morganii; zinc linolenate 2 μg/ml
  Bacterial growth: +
Morganella morganii; zinc linolenate 4 μg/ml
  Bacterial growth: +
Morganella morganii; zinc linolenate 8 μg/ml
  Bacterial growth: +
Morganella morganii; zinc linolenate 16 μg/ml
  Bacterial growth: +
Morganella morganii; zinc linolenate 32 μg/ml
  Bacterial growth: +
Morganella morganii; zinc linolenate 64 μg/ml
  Bacterial growth: +
Morganella morganii; zinc linolenate 128 μg/ml
  Bacterial growth: −
Bacillus cereus; zinc linolenate 2 μg/ml
  Bacterial growth: +
Bacillus cereus; zinc linolenate 4 μg/ml
  Bacterial growth: +
Bacillus cereus; zinc linolenate 8 μg/ml
  Bacterial growth: +
Bacillus cereus; zinc linolenate 16 μg/ml
  Bacterial growth: +
Bacillus cereus; zinc linolenate 32 μg/ml
  Bacterial growth: +
Bacillus cereus; zinc linolenate 64 μg/ml
  Bacterial growth: +
Bacillus cereus; zinc linolenate 128 μg/ml
  Bacterial growth: +
[3]; zinc linolenate 2 μg/ml
  Bacterial growth: +
[3]; zinc linolenate 4 μg/ml
  Bacterial growth: +
[3]; zinc linolenate 8 μg/ml
  Bacterial growth: +
[3]; zinc linolenate 16 μg/ml
  Bacterial growth: +
[3]; zinc linolenate 32 μg/ml
  Bacterial growth: +
[3]; zinc linolenate 64 μg/ml
  Bacterial growth: +
[3]; zinc linolenate 128 μg/ml
  Bacterial growth: +
Bacillus subtilis (168); zinc linolenate 2 μg/ml
  Bacterial growth: +
Bacillus subtilis (168); zinc linolenate 4 μg/ml
  Bacterial growth: +
Bacillus subtilis (168); zinc linolenate 8 μg/ml
  Bacterial growth: +
Bacillus subtilis (168); zinc linolenate 16 μg/ml
  Bacterial growth: +
Bacillus subtilis (168); zinc linolenate 32 μg/ml
  Bacterial growth: +
Bacillus subtilis (168); zinc linolenate 64 μg/ml
  Bacterial growth: +
Bacillus subtilis (168); zinc linolenate 128 μg/ml
  Bacterial growth: +
[4]; zinc linolenate 2 μg/ml
  Bacterial growth: +
[4]; zinc linolenate 4 μg/ml
  Bacterial growth: +
[4]; zinc linolenate 8 μg/ml
  Bacterial growth: +
[4]; zinc linolenate 16 μg/ml
  Bacterial growth: +
[4]; zinc linolenate 32 μg/ml
  Bacterial growth: +
[4]; zinc linolenate 64 μg/ml
  Bacterial growth: +
[4]; zinc linolenate 128 μg/ml
  Bacterial growth: +
[5]; zinc linolenate 2 μg/ml
  Bacterial growth: +
[5]; zinc linolenate 4 μg/ml
  Bacterial growth: +
[5]; zinc linolenate 8 μg/ml
  Bacterial growth: +
[5]; zinc linolenate 16 μg/ml
  Bacterial growth: +
[5]; zinc linolenate 32 μg/ml
  Bacterial growth: +
[5]; zinc linolenate 64 μg/ml
  Bacterial growth: +
[5]; zinc linolenate 128 μg/ml
  Bacterial growth: +
[6]; zinc linolenate 2 μg/ml
  Bacterial growth: +
[6]; zinc linolenate 4 μg/ml
  Bacterial growth: +
[6]; zinc linolenate 8 μg/ml
  Bacterial growth: +
[6]; zinc linolenate 16 μg/ml
  Bacterial growth: +
[6]; zinc linolenate 32 μg/ml
  Bacterial growth: +
[6]; zinc linolenate 64 μg/ml
  Bacterial growth: +
[6]; zinc linolenate 128 μg/ml
  Bacterial growth: +
Shigella dysenteriae; zinc linolenate 2 μg/ml
  Bacterial growth: +
Shigella dysenteriae; zinc linolenate 4 μg/ml
  Bacterial growth: +
Shigella dysenteriae; zinc linolenate 8 μg/ml
  Bacterial growth: +
Shigella dysenteriae; zinc linolenate 16 μg/ml
  Bacterial growth: +
Shigella dysenteriae; zinc linolenate 32 μg/ml
  Bacterial growth: +
Shigella dysenteriae; zinc linolenate 64 μg/ml
  Bacterial growth: +
Shigella dysenteriae; zinc linolenate 128 μg/ml
  Bacterial growth: −
[7]; zinc linolenate 2 μg/ml
  Bacterial growth: +
[7]; zinc linolenate 4 μg/ml
  Bacterial growth: +
[7]; zinc linolenate 8 μg/ml
  Bacterial growth: +
[7]; zinc linolenate 16 μg/ml
  Bacterial growth: +
[7]; zinc linolenate 32 μg/ml
  Bacterial growth: +
[7]; zinc linolenate 64 μg/ml
  Bacterial growth: +
[7]; zinc linolenate 128 μg/ml
  Bacterial growth: +
Ges-1 cells
  toxicity compared with linolenic acid: smaller than that of linolenic acid
[8]; 240 mg/kg (10 times the therapeutic dose), intragastric, once a day for 3 days, weighed 7 consecutive days
  weight of the mice: does not change significantly
[8]; mouse, in vivo, 240 mg/kg
  Alanine aminotransferase: 23.33 U/L
  Aspartate aminotransferase: 138.33 U/L
  Blood urea nitrogen: 11.90 mmol/L
  Creatinine: 15.00 µmol/L
